The values that follow come from PubChem BioAssay AID1117337 (Cheminformatics & Chemogenomics Research Group (CCRG), …, 2015).

The source made the active and inactive calls. The rule behind the calls is not given here. Where a SMILES comes first, the peptide text is derived from it. A value given as a limit tells only on which side of the number the result lay.

For the assay, the system named is ADSC/ECFC co-culture, VEGF-stimulated, CD31 tube area. In words: ADSC/ECFC co-culture angiogenesis inhibition – imaging, VEGF stimulation, CD31 staining, tube area, IC50, dose response (AID 1117337).

As usually defined, the IC50 is the concentration that inhibits the measured activity by half. Take `Cc1cc(O)c2c(O)c3c(O)cccc3cc2c1`: the IC50 is > 10 µM (inactive). To `O=C1C2CC=CCC2C(=O)N1SC(Cl)(Cl)Cl` (configuration not stated) belongs > 10 µM (inactive); to `Clc1ccc(Nc2nnc(Cc3ccncc3)c3ccccc23)cc1`, 0.111 µM.

For the compound `Oc1c(I)cc(Cl)c2cccnc12`, the IC50 was > 10 µM (inactive). For `COc1cccc2c1C(=O)c1c(O)c3c(c(O)c1C2=O)C[C@@](O)(C(=O)CO)C[C@@H]3O[C@H]1C[C@H](N)[C@H](O[C@@H]2CCCCO2)[C@H](C)O1`, the IC50 was 0.0063 µM. As to `CCCCCCCCCCCCCCCCCCCCCC(=O)Nc1ccn([C@@H]2O[C@H](CO)[C@@H](O)[C@H]2O)c(=O)n1`, the IC50 was > 10 µM (inactive).

As to `CN(C)CCCN1c2ccccc2Sc2ccc(Cl)cc21`, the IC50 was > 10 µM (inactive). Regarding `N/C(=N\N=C\c1ccc(Cl)cc1)N/N=C/c1ccc(Cl)cc1`, the IC50 was > 10 µM (inactive). For `O=C1CC[C@H](C(=O)N2CCCCC2)N1`, the IC50 was > 10 µM (inactive). Turning to `CCC1=C[C@@H]2CN(C1)Cc1c([nH]c3ccccc13)[C@@](C(=O)OC)(c1cc3c(cc1OC)N(C)[C@H]1[C@@](O)(C(=O)OC)[C@H](OC(C)=O)[C@]4(CC)C=CCN5CC[C@]31[C@@H]54)C2`, the IC50 is 0.0055 µM. Turning to `Oc1ccc(O)cc1`, the IC50 was > 10 µM (inactive).

For `COC(=O)C1=C(C)NC(C)=C(C(=O)OCCN2CCN(C(c3ccccc3)c3ccccc3)CC2)C1c1cccc([N+](=O)[O-])c1` (configuration not stated), the IC50 was > 10 µM (inactive). Take `CC(C)(C)CC(C)(C)c1ccc(O)cc1`: the IC50 is > 10 µM (inactive). Take `Clc1ccc(C(Cn2ccnc2)OCc2ccsc2Cl)c(Cl)c1` (configuration not stated): the IC50 is 5 µM. To `Oc1ccc(/C=C/c2cc(O)cc(O)c2)cc1` belongs > 10 µM (inactive). With `CC[C@H](C)C(=O)O[C@H]1C[C@@H](C)C=C2C=C[C@H](C)[C@H](CC[C@@H]3C[C@@H](O)CC(=O)O3)[C@H]21` the figure was 3.27 µM. Regarding `Clc1ccc(C(Cn2ccnc2)OCc2ccc(Sc3ccccc3)cc2)c(Cl)c1` (configuration not stated), the IC50 was > 10 µM (inactive). Consider `O=C1OC(OC(=O)c2cccnc2Nc2cccc(C(F)(F)F)c2)c2ccccc21` (configuration not stated), for which the IC50 is > 10 µM (inactive). In the case of `C[C@@H](O[C@H]1OCCN(Cc2n[nH]c(=O)[nH]2)[C@H]1c1ccc(F)cc1)c1cc(C(F)(F)F)cc(C(F)(F)F)c1`, the IC50 is 6.89 µM (inactive). As to `[O-][n+]1ccccc1SSc1cccc[n+]1[O-]`, the IC50 is 0.719 µM. In the case of `Cc1cccc(C)c1NC(=O)CN1CCN(CCCC(c2ccc(F)cc2)c2ccc(F)cc2)CC1`, the IC50 is > 10 µM (inactive). As for `Cc1cc(=O)c2c(O)c3c(O)cc(=O)c4c3c3c(cc(O)c1c23)C(C)(C)C=4O`, the IC50 was 0.101 µM. For `C1CN(P2(N3CC3)=NP(N3CC3)(N3CC3)=NP(N3CC3)(N3CC3)=N2)CCO1` (configuration not stated), the IC50 was 3.62 µM. `COC(=O)Nc1nc2ccc(C(=O)c3ccccc3)cc2[nH]1`: the IC50 is 0.37 µM. Turning to `NC(=O)[C@@H]1CSSCCC(=O)N[C@@H](CCCCN=C(N)N)C(=O)NCC(=O)N[C@@H](CC(=O)O)C(=O)N[C@@H](Cc2c[nH]c3ccccc23)C(=O)N2CCC[C@H]2C(=O)N1` (HELM PEPTIDE1{[O=C(CCS[*:3])[*:2]].[N=C(N)NCCCC[C@H](N[*:1])C(=O)[*:2]].G.D.W.P.C.[am]}$PEPTIDE1,PEPTIDE1,1:R3-7:R3$$$V2.0), the IC50 is > 10 µM (inactive). On to `CCCCCCCCCCCCCCCC[N+](C)(C)CCN(Cc1ccc(OC)cc1)c1ncccn1`, for which the concentration for half-maximal inhibition (IC50) was 3.07 µM.

With `Cc1cc(C2CCCCC2)n(O)c(=O)c1`, the IC50 is > 10 µM (inactive). As to `Cc1ccc(Nc2nccc(N(C)c3ccc4c(C)n(C)nc4c3)n2)cc1S(N)(=O)=O`, the IC50 was 0.0465 µM.

Regarding `O=C(O)CCC(=O)OC[C@@H](NC(=O)C(Cl)Cl)[C@H](O)c1ccc([N+](=O)[O-])cc1`, the IC50 was > 10 µM (inactive). With `COc1cc([C@@H]2c3cc4c(cc3[C@@H](O[C@@H]3O[C@@H]5CO[C@@H](C)O[C@@H]5[C@H](O)[C@@H]3O)[C@H]3COC(=O)[C@H]23)OCO4)cc(OC)c1O` the figure was 0.109 µM; with `COc1cc(NCc2ccc3nc(N)nc(N)c3c2C)cc(OC)c1OC`, 4.42 µM. As for `Cc1c(C)c2c(c(C)c1OC(=O)CCC(=O)O)CC[C@@](C)(CCC[C@H](C)CCC[C@H](C)CCCC(C)C)O2`, the IC50 is > 10 µM (inactive). For the compound `O=C(CCCN1CCC(O)(c2cccc(C(F)(F)F)c2)CC1)c1ccc(F)cc1`, the IC50 was > 10 µM (inactive). On to `CC(=O)Nc1ccn(C2COC(COC(=O)c3ccccc3)O2)c(=O)n1` (configuration not stated), for which the IC50 was 2.33 µM. Turning to `Cc1cccc(C)c1NC(=O)CC12CCCN1CCC2`, the IC50 was > 10 µM (inactive). With `COC(=O)Nc1nc2ccc(Sc3ccccc3)cc2[nH]1`, the IC50 was 0.207 µM.

In the case of `CCCCCCCCOC(=O)c1ccccc1C(=O)OCCCCCCCC`, the IC50 was > 10 µM (inactive). Regarding `Nc1c2ccccc2nc2ccccc12`, the IC50 was > 10 µM (inactive). On to `CCCn1cnc2c1c(=O)n(CCCCC(C)=O)c(=O)n2C`, for which the IC50 was > 10 µM (inactive). For `CC1=C(/C=C/C(C)=C/C=C/C(C)=C/C(=O)Nc2ccc(O)cc2)C(C)(C)CCC1`, the IC50 was 1.34 µM. As for `O=C(Nc1ccc(Br)cc1)c1cc(Br)cc(Br)c1O`, the 50% inhibitory concentration (IC50) was 1.81 µM.

As to `O=C(CCN1CCC(c2ccccc2)C1)c1ccc2c(c1)OCCO2` (configuration not stated), the IC50 is > 10 µM (inactive).

With `Nc1ncn([C@@H]2O[C@H](CO)[C@@H](O)[C@H]2O)c(=O)n1`, the IC50 is > 10 µM (inactive). To `CN(C)C(=O)Oc1cccc([N+](C)(C)C)c1` belongs > 10 µM (inactive). As for `CCN(CC)C(=O)c1cccnc1`, the IC50 was > 10 µM (inactive). In the case of `CC(C)=CCC/C(C)=C/CC/C(C)=C/C(=O)OCC(=O)[C@@]1(O)CC[C@H]2[C@@H]3CCC4=CC(=O)C=C[C@]4(C)[C@H]3[C@@H](O)C[C@@]21C`, the IC50 was 3.34 µM. To `Cc1[nH]cnc1C[C@H]1CCc2c(C)c3ccccc3n2C1=O` belongs > 10 µM (inactive). Consider `C[n+]1cc2c3c(ccc2c2ccc4cc5c(cc4c21)OCO5)OCO3`, for which the IC50 was 0.537 µM. Regarding `CC(=O)NC(=O)c1ccccc1O`, the IC50 was > 10 µM (inactive). With `CCCCC(CC)CN=C(N)NC(N)=NCCCCCCN=C(N)NC(N)=NCC(CC)CCCC` (configuration not stated), the IC50 was 0.408 µM. In the case of `CCOC(=O)NC(C)(C)Cc1ccc(Cl)cc1`, the IC50 was > 10 µM (inactive). In the case of `NCCNc1ccc(NCCN)c2c1C(=O)c1ccncc1C2=O`, the IC50 was 0.0465 µM.

With `Oc1c(Cl)cc(Cl)cc1Sc1cc(Cl)cc(Cl)c1O`, the IC50 was 1.79 µM. To `COC(=O)CCCCC(CCSS/C(CCO)=C(\C)N(C=O)Cc1cnc(C)nc1N)SC(C)=O` (configuration not stated) belongs > 10 µM (inactive); to `CCN(CC)CCOc1ccc(C(O)(Cc2ccc(Cl)cc2)c2ccc(C)cc2)cc1` (configuration not stated), 3.21 µM; to `Cc1cc(-c2ccc(N=Nc3c(S(=O)(=O)O)cc4cc(S(=O)(=O)O)cc(N)c4c3O)c(C)c2)ccc1N=Nc1c(S(=O)(=O)O)cc2cc(S(=O)(=O)O)cc(N)c2c1O`, > 10 µM (inactive). Turning to `O=c1c(-c2ccc(O)cc2)coc2cc(O)cc(O)c12`, the IC50 is > 10 µM (inactive). In the case of `COC(=O)N[C@H](C(=O)N[C@@H](Cc1ccccc1)[C@@H](O)CN(Cc1ccc(-c2ccccn2)cc1)NC(=O)[C@@H](NC(=O)OC)C(C)(C)C)C(C)(C)C`, the IC50 was > 10 µM (inactive).

Turning to `CC(C(O)c1ccccc1)N(C)C/C=C/c1ccccc1` (configuration not stated), the IC50 was > 10 µM (inactive). On to `CCOC(=O)c1ccccc1C(=O)OCC`, for which the IC50 was > 10 µM (inactive). For the compound `COc1ccc(-c2ccc3cc(C(=O)O)ccc3c2)cc1C12CC3CC(CC(C3)C1)C2`, the IC50 is 0.524 µM.

Consider `CCCCCCCCCCCCCCCC[N+](C)(C)Cc1ccccc1`, for which the half-inhibitory concentration (IC50) is 2.53 µM.

Turning to `CN(C)c1ccc(C(=C2C=CC(=[N+](C)C)C=C2)c2ccc(N(C)C)cc2)cc1`, the IC50 was 0.186 µM. With `COCCOC(=O)C1=C(C)NC(C)=C(C(=O)OC/C=C/c2ccccc2)C1c1cccc([N+](=O)[O-])c1` (configuration not stated) the figure was 6.42 µM (inactive); with `CO[C@@H]1[C@@H](OC)[C@H](C)[C@@](O)(CC(=O)O)O[C@H]1[C@H](C)[C@H]1O[C@@]2(CC[C@@](C)([C@H]3CC[C@@](C)([C@@H]4O[C@@H]([C@H]5O[C@](C)(O)[C@H](C)C[C@@H]5C)C[C@@H]4OC4C[C@H](OC)[C@@H](OC)[C@H](C)O4)O3)O2)C[C@H](O)[C@H]1C` (some centres not stated), 0.252 µM; with `COP(=S)(OC)Oc1ccc(Sc2ccc(OP(=S)(OC)OC)cc2)cc1`, > 10 µM (inactive). As for `CC1(C)[C@H](C=C(Cl)Cl)[C@@H]1C(=O)OCc1c(F)c(F)cc(F)c1F`, the IC50 was > 10 µM (inactive). Turning to `CCCCCCCC/C=C\CCCCCCCCN`, the IC50 was > 10 µM (inactive). `CC[C@]1(O)CC[C@H]2[C@@H]3CCC4=CCCC[C@@H]4[C@H]3CC[C@@]21C`: the IC50 was 6.25 µM (inactive).

For the compound `CC(=O)[C@]1(O)Cc2c(O)c3c(c(O)c2[C@@H](O[C@H]2C[C@H](N)[C@H](O)[C@H](C)O2)C1)C(=O)c1ccccc1C3=O`, the IC50 was 0.0208 µM.

With `CN(C)/N=N/c1nc[nH]c1C(N)=O`, the IC50 was 4.59 µM. On to `CCC(C(=O)OCCOCCN(CC)CC)c1ccccc1` (configuration not stated), for which the IC50 is > 10 µM (inactive).

Turning to `O=C1c2c(O)ccc(O)c2C(=O)c2c(NCCNCCO)ccc(NCCNCCO)c21`, the IC50 is 0.0044 µM.

Regarding `O[C@@H](c1cc(C(F)(F)F)nc2c(C(F)(F)F)cccc12)[C@H]1CCCCN1`, the IC50 is > 10 µM (inactive). In the case of `O=[N+]([O-])c1cc(I)c(O)c(I)c1`, the IC50 is > 10 µM (inactive). Turning to `CCCCCCCCCCCCNCCNCCNCC(=O)O`, the IC50 is 6.04 µM (inactive). For `Nc1nc(=S)c2[nH]cnc2[nH]1`, the IC50 is 0.622 µM.
